Entries after “also recorded” stand apart in the source; their conditions may differ.
Columns and labels:
[1] = test system: Patientinnen, die an hypothalamischer Amenorrhoe litten; assay: Naltrexon administration to patients with hypothalamic amenorrhea (serial blood sampling for LH, FSH, prolactin and ovarian steroids; ultrasound); type: in vivo
Description: Im Rahmen der vorliegenden Erfindung wurden Untersuchungen an Patientinnen mit hypothalamischer Amenorrhoe durchgeführt. Diese Untersuchungen haben überraschenderweise gezeigt, daß durch die Gabe des Opiat-Antagonisten Naltrexon eine Zunahme von Frequenz und Amplitude der LH und FSH Sekretion erreicht wird. Es kann daher davon ausgegangen werden, daß die endogene GnRH Sekretion durch den Opiat-Antagonisten vermehrt wird.
Die basale Gonadotropin Sekretion von Patientinnen, die an hypothalamischer Amenorrhoe litten, wurde durch Bestimmung von LH und FSH, Prolactin und Ovarien-Steroiden in ßlutproben bewertet, die alle zehn Minuten während 24 Stunden entnommen wurden. Naltrexon wurde dann in einer Dosis von 50 mg pro Tag während 24 oder 28 Tagen verabreicht. 5 Tage und 14 Tage nach dem Beginn der Naltrexonverabreichung wurden wiederholte Blutproben entnommen. An den übrigen Tagen wurden täglich Blutproben entnommen und es wurde eine Ultraschalluntersuchung nach der Naltrexonverabreichung sowie einige Tage danach durchgeführt. Es wurden folgende Ergebnisse ermittelt:
Auf die Verabreichung von Naltrexon folgte eine Zunahme der Frequenz und der Amplitude der pulsatielen Gonadotropin Sekretion sowie eine Zunahme der mittleren LH und FSH Serumkonzentration sowie der Entwicklung der Gonaden-Steroid Sekretion und der Follikel, was durch Ultraschall festgestellt wurde.

[2] = general statement on the known drug; oral administration possible; cited from earlier work
[3] = hypothalamic amenorrhea, 50 mg pro Tag während 24 oder 28 Tagen
[4] = patients with hypothalamic amenorrhea, summary statement

O=C1CC[C@@]2(O)[C@H]3Cc4ccc(O)c5c4[C@@]2(CCN3CC2CC2)C1O5 (stereo partly drawn) [Naltrexon, 17-(Cyclopropylmethyl)-4,5-epoxy-3,14-dihydroxymorphinan-6-on]
Entwicklung der Follikel ([1]; by ultrasound, hypothalamic amenorrhea, 50 mg pro Tag während 24 oder 28 Tagen): Zunahme
Amplitude der pulsatielen Gonadotropin Sekretion [1, 3]: Zunahme
Entwicklung der Gonaden-Steroid Sekretion [1, 3]: Zunahme
Frequenz der pulsatielen Gonadotropin Sekretion [1, 3]: Zunahme
mittlere FSH Serumkonzentration [1, 3]: Zunahme
mittlere LH Serumkonzentration [1, 3]: Zunahme
Menstruation nach Absetzen des Mittels ([1]; patients who menstruated after withdrawal, hypothalamic amenorrhea, 50 mg pro Tag während 24 oder 28 Tagen): Sämtliche Patientinnen menstruierten
Ovulation ([1]; patients who ovulated, hypothalamic amenorrhea, 50 mg pro Tag während 24 oder 28 Tagen): führte zur Normalisierung der Gonadotropin-Sekretion, zur Ovulation; also recorded: Eine von 3 Patientinnen ovulierte
Bildung eines Corpus luteum [1, 4]: zur Bildung eines Corpus luteum
Gonadotropin-Sekretion [1, 4]: Normalisierung
menstrueller Zyklus [1, 4]: Normalisierung
Verweildauer im Plasma [2]: lange

— patent EP0567205A1, “Use of opiate antagonists in the manufacture of agents for the diagnosis and therapy of hypothalamic function disorders” (Ferring Arzneimittel GmbH, priority 1986, dated 1988)
